Measurements as given in ChEMBL document CHEMBL1145108, “Fragment screening and assembly: a highly efficient approach to a selective and cell active protein tyrosine phosphatase 1B inhibitor” (J Med Chem, 2003).

Legend:
[1] = biological target: T1, Tyrosine-protein phosphatase non-receptor type 1 (Homo sapiens, UniProt P18031); assay: Dissociation constant against Protein-tyrosine phosphatase 1B receptor was determined
T1 sequence (P18031 whole entry): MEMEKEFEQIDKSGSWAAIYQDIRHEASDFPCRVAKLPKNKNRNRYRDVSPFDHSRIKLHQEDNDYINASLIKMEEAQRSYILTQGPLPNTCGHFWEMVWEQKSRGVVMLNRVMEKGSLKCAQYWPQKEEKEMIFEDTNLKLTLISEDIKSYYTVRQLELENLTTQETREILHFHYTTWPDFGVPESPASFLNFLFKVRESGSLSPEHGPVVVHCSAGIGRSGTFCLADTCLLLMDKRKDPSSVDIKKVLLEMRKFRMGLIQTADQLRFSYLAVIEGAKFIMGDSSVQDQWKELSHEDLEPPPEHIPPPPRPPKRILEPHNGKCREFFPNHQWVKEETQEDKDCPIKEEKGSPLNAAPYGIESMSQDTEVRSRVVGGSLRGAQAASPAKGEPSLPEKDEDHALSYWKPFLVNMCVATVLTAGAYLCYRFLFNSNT

[2] = biological target: T1, Tyrosine-protein phosphatase non-receptor type 1
Description: Binding affinity against protein tyrosine phosphatase PTB1B

[3] = biological target: Tyrosine-protein phosphatase non-receptor type 2 (Homo sapiens, UniProt P17706); assay: Inhibitory constant of compound against T cell protein tyrosine phosphatase was determined; assay type: cell-based
Chain of Tyrosine-protein phosphatase non-receptor type 2 (P17706 whole entry, looked up): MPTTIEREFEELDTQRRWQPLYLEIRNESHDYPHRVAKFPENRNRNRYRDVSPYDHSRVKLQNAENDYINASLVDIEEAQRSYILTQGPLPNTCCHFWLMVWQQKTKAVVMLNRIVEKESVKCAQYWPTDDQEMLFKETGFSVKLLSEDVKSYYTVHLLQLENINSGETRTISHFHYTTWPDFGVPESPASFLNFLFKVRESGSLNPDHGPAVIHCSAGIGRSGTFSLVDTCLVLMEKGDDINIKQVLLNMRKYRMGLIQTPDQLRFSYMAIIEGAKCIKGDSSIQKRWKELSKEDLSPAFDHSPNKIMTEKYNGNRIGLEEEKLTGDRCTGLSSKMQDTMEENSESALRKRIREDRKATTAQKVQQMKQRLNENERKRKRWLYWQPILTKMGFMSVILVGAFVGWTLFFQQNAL

Kd [1] [µM]	Ki [2] [µM]	Ki [3] [µM]	Structure (SMILES)
800	–	–	O=C(O)c1cc(-c2ccc(Br)cc2)on1
–	148	634	CCCC(=O)Nc1cccc(-c2cc(C(=O)O)no2)c1
